From PMC11672152 (JACS Au, 2024) come the findings set out here.

Test [1] in a line: In vitro •OH-scavenging capacity. Type of test: biochemical. Conditions: amino acid 80 μM; Cys, Met and Trp compared, normalized to Cys; Figure S18.
Test [2] can be described thus: In vitro 1O2-scavenging capacity. It counts as biochemical. Conditions: amino acid 80 μM; normalized to Cys; Figure S18.
In test [3] the test system is •OH in chloroplasts of N. benthamiana leaf discs. The experiment in a line: In vivo •OH level in chloroplasts of leaf discs. It counts as cell-based, Nicotiana benthamiana. Conditions: MV 0.35 μM, HPF 5 μM; MV(+) vs MV(−); n = 8; Figure S22.
Test [4] deals with ^1O2 in chloroplasts of N. benthamiana leaf discs. The experiment in a line: In vivo 1O2 level in chloroplasts of leaf discs. Type of test: cell-based, Nicotiana benthamiana. Conditions: MV 0.35 μM, SOSG 10 μM; MV(+) vs MV(−); n = 8; Figure S22.

For `N[C@@H](Cc1c[nH]c2ccccc12)C(=O)O` [Trp, tryptophan], the “•OH-scavenging capacity of amino acids” value in test [1] is reported as “highest •OH-scavenging capacity”.
On to `CSCC[C@H](N)C(=O)O` [Met, methionine], for which, in test [2], the “1O2-scavenging capacity of amino acids compared with Trp” value is given as “more effective scavengers for ^1O2 than Trp”.
As to `C[n+]1ccc(-c2cc[n+](C)cc2)cc1` [MV, methyl viologen], the “effect on cellular levels of •OH” value in test [3] is “elevated the cellular levels of •OH”. For the same compound, the “effect on cellular levels of 1O2” value in test [4] was “did not affect those of ^1O2”.
For the compound `N[C@@H](CS)C(=O)O` [Cys, cysteine], in test [2], the “1O2-scavenging capacity of amino acids compared with Trp” value is reported as “more effective scavengers for ^1O2 than Trp”.
